We go through six compounds from ChEMBL document CHEMBL1268995, “The structure and antimalarial activity of dispiro-1,2,4,5-tetraoxanes derived from (+)-dihydrocarvone” (Bioorg Med Chem Lett, 2010).

One data set deals with Plasmodium berghei. Put plainly: Antimalarial activity against Plasmodium berghei infected in NMRI mice (Mus musculus) assessed as reduction in parasitaemia at 100 mg/kg, perorally administered 1 day post-infection measured 3 day post-infection. It is filed as functional. The arrangement: scale not given: the % may be the effect or the level left. The following applies: route oral.

Data set [1] deals with Plasmodium falciparum. As to the kind of experiment: Antimalarial activity against chloroquine-resistant Plasmodium falciparum K1. The data set is classed as functional, organism-based.
Data set [2] concerns Plasmodium falciparum. Put plainly: Antimalarial activity against chloroquine-sensitive Plasmodium falciparum NF54. The data set is classed as functional, organism-based.
Data set [3] is described as follows: Partition coefficient, log P of the compound. The data set is classed as physicochemical. Conditions: octanol/water.

Each structure is given as a SMILES string. In brackets after ≈: the same amount, converted by molar mass. Some results are limits rather than exact numbers.

Turning to `C[C@@H]1CCCCC12OOC1(CCCC[C@@H]1C)OO2` (stereo partly specified) [WR-148999], the Activity in the data set on Plasmodium berghei is 99.7%.
Regarding `C=C(C)[C@@H]1CC[C@@H](C)C2(C1)OOC1(C[C@H](C(=C)C)CC[C@H]1C)OO2` (stereo partly specified), the IC50 in the data set with Plasmodium falciparum [1] was found to be 6.9 ng/mL (≈ 0.0205 µM); with Plasmodium falciparum [2] it was 6.6 ng/mL (≈ 0.0196 µM). Besides, the Activity in the data set on Plasmodium berghei came to 99.9%.
As for `C[C@@H]1CC[C@H]2[C@@H](C)C(=O)O[C@@H]3O[C@@]4(C)CC[C@@H]1[C@]32OO4` [ARTEMISININ], 3.4 ng/mL (≈ 0.012 µM) corresponded to half-maximal inhibition in the data set on Plasmodium falciparum [2] (IC50). Further, the Activity with Plasmodium berghei stood at 98%. In data set [3], this compound came in with a logP of 2.2.
With `CC(=O)[C@@H]1CC[C@@H](C)C2(C1)OOC1(C[C@H](C(C)=O)CC[C@H]1C)OO2` (stereo partly specified), the IC50 in the data set with Plasmodium falciparum [1] and with Plasmodium falciparum [2] was 2.1 ng/mL (≈ 0.00617 µM) in each case. In addition, the Activity in the data set on Plasmodium berghei was 63%.
Turning to `C/C(=N\O)[C@@H]1CC[C@@H](C)C2(C1)OOC1(C[C@H](/C(C)=N/O)CC[C@H]1C)OO2` (stereo partly specified), the IC50 with Plasmodium falciparum [1] was found to be 30 ng/mL (≈ 0.081 µM); in the data set with Plasmodium falciparum [2] it was 18 ng/mL (≈ 0.0486 µM). The Activity with Plasmodium berghei is recorded as less than 40%.
Consider `CC(N)[C@@H]1CC[C@@H](C)C2(C1)OOC1(C[C@H](C(C)N)CC[C@H]1C)OO2` (stereo partly specified), for which the IC50 was found to be 54 ng/mL (≈ 0.158 µM) in the data set with Plasmodium falciparum [1] and 82 ng/mL (≈ 0.239 µM) in the data set with Plasmodium falciparum [2]. Moreover, the Activity in the data set on Plasmodium berghei is listed as 99.1%.
